Where two headings read alike, the source gives them in different places.
Molecular target: T1, sodium-proton exchanger of subtype 3 (NHE3) (Homo sapiens, UniProt P48764)
T1 construct: expressed in transfected cells
T1 sequence (P48764 26-834): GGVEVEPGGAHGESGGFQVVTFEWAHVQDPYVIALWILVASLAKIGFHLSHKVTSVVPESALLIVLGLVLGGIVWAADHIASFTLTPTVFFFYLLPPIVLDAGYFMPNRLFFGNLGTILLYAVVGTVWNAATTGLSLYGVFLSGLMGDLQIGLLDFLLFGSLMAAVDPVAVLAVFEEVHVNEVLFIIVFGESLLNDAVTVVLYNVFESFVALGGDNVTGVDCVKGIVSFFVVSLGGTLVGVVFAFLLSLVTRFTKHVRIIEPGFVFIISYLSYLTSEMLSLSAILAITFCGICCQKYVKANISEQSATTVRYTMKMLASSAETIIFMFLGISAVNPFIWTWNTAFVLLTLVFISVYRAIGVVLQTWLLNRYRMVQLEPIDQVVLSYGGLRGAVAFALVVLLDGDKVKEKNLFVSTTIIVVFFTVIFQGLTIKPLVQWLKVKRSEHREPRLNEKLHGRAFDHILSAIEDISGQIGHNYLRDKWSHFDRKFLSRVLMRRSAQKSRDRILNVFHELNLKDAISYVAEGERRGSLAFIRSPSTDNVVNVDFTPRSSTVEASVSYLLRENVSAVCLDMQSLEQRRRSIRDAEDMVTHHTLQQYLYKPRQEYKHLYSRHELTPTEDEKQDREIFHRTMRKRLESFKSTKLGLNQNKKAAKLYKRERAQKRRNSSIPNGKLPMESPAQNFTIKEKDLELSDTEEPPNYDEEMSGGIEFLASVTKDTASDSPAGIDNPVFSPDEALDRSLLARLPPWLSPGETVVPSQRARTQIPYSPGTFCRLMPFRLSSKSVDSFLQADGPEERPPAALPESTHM
Experiment: Recovery of intracellular pH (pHi) after acidification in LAP1 cells stably expressing NHE3 (BCECF fluorescence, FLIPR)
Type: cell-based
Conditions: LAP1 cells stably expressing NHE3, pH recovery after acidification, range 1 is % inhibition at 10 μM

[1] = read-out: Activity range (inhibitory effect on NHE3)

SMILES | IC50 [1] [nM] | other results
N[C@@H]1CCCN([C@@H]2Cc3c(Cl)cc(Cl)cc3[C@H]2Oc2ccccc2)C1 [Example 23, (R)-1-(trans-(1R,2R)-4,6-dichloro-1-phenoxyindan-2-yl)piperidin-3-ylamine] | 1000 to 10000 | –
N[C@@H]1CCCN([C@H]2CCc3ccccc3[C@@H]2Oc2ccc(F)c(C(F)(F)F)c2)C1 (racemic) [Example 69, (R)-1-[rac-trans-(1,2)-1-(4-fluoro-3-trifluoromethylphenoxy)-1,2,3,4-tetrahydronaphthalen-2-yl]piperidin-3-ylamine] | – | inhibition at 10 µM [1]: 20 to 50%
Cc1nnc(C)n1-c1ccc(O[C@H]2c3cc(Cl)cc(F)c3C[C@@H]2N2CC[C@@H](O)C2)cc1 [Example 144, (R)-1-{trans-(1S,2S)-6-chloro-1-[4-(3,5-dimethyl-[1,2,4]triazol-4-yl)phenoxy]-4-fluoroindan-2-yl}pyrrolidin-3-ol] | < 1000 | –
O=C1CCC(=O)N1c1ccc(O[C@H]2c3cc(Cl)cc(Cl)c3C[C@@H]2N2CC[C@@H](O)C2)cc1 [Example 334, 1-{4-[trans-(1S,2S)-4,6-dichloro-2-((R)-3-hydroxypyrrolidin-1-yl)indan-1-yloxy]phenyl}pyrrolidine-2,5-dione] | < 1000 | –
CCN(CC)[C@@H]1Cc2ccccc2[C@H]1Oc1ccc(N2CCNCC2)cc1 (racemic) [Example 627, Diethyl-[rac-trans-(1,2)-1-(4-piperazin-1-ylphenoxy)indan-2-yl]amine] | – | IC50 (Activity range (inhibitory effect on NHE3)): 1000 to 10000 nM
O=C(O[C@H]1c2ccccc2C[C@@H]1N1CCCC1)c1ccc(N2CCCC2=O)cc1 [Example 461, 4-(2-Oxopyrrolidin-1-yl)benzoic acid (1S,2S)-2-pyrrolidin-1-ylindan-1-yl ester] | – | inhibition at 10 µM [1]: 20 to 50%
NS(=O)(=O)c1ccc(O[C@H]2c3ccccc3C[C@@H]2N2CCCC2)c(F)c1 (racemic) [Example 451, 3-fluoro-4-(2-pyrrolidin-1-ylindan-1-yloxy)benzenesulfonamide] | < 1000 | –
CS(=O)(=O)c1ccc(O[C@H]2c3cc(Cl)cc(Cl)c3C[C@@H]2N2CC[C@H](O)C2)cc1 [Example 198, (S)-1-[trans-(1S,2S)-4,6-dichloro-1-(4-methanesulfonylphenoxy)indan-2-yl]pyrrolidin-3-ol] | < 1000 | –
Cc1nnc(C)n1-c1ccc(O[C@H]2c3cc(Cl)cc(F)c3C[C@@H]2NC2CCCC2)c(F)c1 [Example 749, {trans-(1S,2S)-6-Chloro-1-[4-(3,5-dimethyl-[1,2,4]triazol-4-yl)-2-fluoro-phenoxy]-4-fluoro-indan-2-yl}-cyclopentyl-amine] | 1000 to 10000 | –
CN(C)C1Cc2ccccc2C1Oc1ccc(S(N)(=O)=O)c(Cl)c1Cl (racemic) [Example 356, 2,3-dichloro-4-(rac-trans-(1,2)-2-dimethylaminoindan-1-yloxy)benzenesulfonamide] | < 1000 | –
N[C@H]1CCCN([C@H]2CCc3ccccc3[C@@H]2Oc2ccc3oc(=O)sc3c2)C1 (racemic) [Example 580, 5-[rac-trans-(1,2)-2-((S)-3-aminopiperidin-1-yl)-1,2,3,4-tetrahydronaphthalen-1-yloxy]benzo[1,3]oxathiol-2-one] | – | inhibition at 10 µM [1]: 20 to 50%
O=C1CCC(=O)N1c1cccc(O[C@H]2c3ccccc3C[C@@H]2N2CCCC2)c1 (racemic) [Example 256, 1-[3-(rac-trans-(1,2)-2-pyrrolidin-1-ylindan-1-yloxy)phenyl]pyrrolidine-2,5-dione] | 1000 to 10000 | –
N#Cc1ccc(O[C@@H]2c3ccccc3C[C@H]2N2CCC(CN)CC2)cc1Cl (racemic) [Example 546, 4-[rac-trans-(1,2)-2-(4-aminomethylpiperidin-1-yl)indan-1-yloxy]-2-chlorobenzonitrile] | 1000 to 10000 | –
NS(=O)(=O)c1ccc(O[C@H]2c3ccccc3C[C@@H]2N2CC[C@@H](CO)C2)cc1 (racemic) [Example 526, 4-[rac-trans-(1,2)-2-((R)-3-Hydroxymethylpyrrolidin-1-yl)indan-1-yloxy]benzenesulfonamide] | 1000 to 10000 | –
CC(=O)Nc1ccc(S[C@H]2c3cc(Cl)cc(Cl)c3C[C@@H]2N2CC[C@@H](O)C2)cc1 [Example 699, N-{4-[(1S,2S)-4,6-dichloro-2-((R)-3-hydroxypyrrolidin-1-yl)indan-1-ylsulfanyl]phenyl}acetamide] | 1000 to 10000 | –
Cc1nn(C)c(C)c1-c1ccc(O[C@H]2c3cc(Cl)cc(Cl)c3C[C@@H]2N2CC[C@@H](O)C2)cc1 [Example 124, (R)-1-{trans-(1S,2S)-4,6-dichloro-1-[4-(1,3,5-trimethyl-1H-pyrazol-4-yl)phenoxy]indan-2-yl}pyrrolidin-3-ol] | 1000 to 10000 | –
N[C@@H]1CCCN([C@H]2CCc3ccccc3[C@@H]2Oc2ccccc2N2CCOCC2)C1 (racemic) [Example 48, (R)-1-[rac-trans-(1,2)-1-(2-morpholin-4-ylphenoxy)-1,2,3,4-tetrahydronaphthalen-2-yl]piperidin-3-ylamine] | – | inhibition at 10 µM [1]: 20 to 50%
COC(=O)c1ccc(O[C@H]2c3cc(Cl)cc(Cl)c3C[C@@H]2N2CC[C@@H](O)C2)c(F)c1 [Example 553, 4-[trans-(1S,2S)-4,6-dichloro-2-((R)-3-hydroxypyrrolidin-1-yl)indan-1-yloxy]-3-fluorobenzoic acid methyl ester] | 1000 to 10000 | –
Cc1cn(-c2ccc(O[C@H]3c4cc(Cl)cc(F)c4C[C@@H]3N3CC[C@@H](O)C3)cc2)c(C(C)C)n1 [Example 720, (R)-1-{trans-(1S,2S)-6-Chloro-4-fluoro-1-[4-(2-isopropyl-4-methyl-imidazol-1-yl)-phenoxy]-indan-2-yl}-pyrrolidin-3-ol] | 1000 to 10000 | –

More lines, main results first:

IC50 [1] [nM] | SMILES | other results
< 1000 | CC(=O)Nc1cccc(O[C@H]2c3ccccc3C[C@@H]2N2CCC[C@@H](N)C2)c1 [Example 691, N-{3-[trans-(1S,2S)-2-((R)-3-aminopiperidin-1-yl)indan-1-yloxy]phenyl}acetamide] | –
1000 to 10000 | CCCc1ccc(NC(C)=O)cc1O[C@H]1c2ccccc2CC[C@@H]1N1CCC[C@@H](N)C1 (racemic) [Example 675, N-{3-[rac-trans-(1,2)-2-((R)-3-aminopiperidin-1-yl)-1,2,3,4-tetrahydronaphthalen-1-yloxy]-4-propylphenyl}acetamide] | –
< 1000 | CS(=O)(=O)c1ccc(O[C@H]2c3ccccc3C[C@@H]2N2CCCC2)c(Cl)c1Cl (racemic) [Example 263, 1-[rac-trans-(1,2)-1-(2,3-dichloro-4-methanesulfonylphenoxy)indan-2-yl]pyrrolidine] | –
1000 to 10000 | N#Cc1ccc(O[C@H]2c3ccccc3CC[C@@H]2N2CCC[C@@H](N)C2)c(F)c1F (racemic) [Example 509, 4-[rac-trans-(1,2)-2-((R)-3-aminopiperidin-1-yl)-1,2,3,4-tetrahydronaphthalen-1-yloxy]-2,3-difluorobenzonitrile] | –
1000 to 10000 | NS(=O)(=O)c1cc(Cl)c(O[C@H]2c3ccccc3C[C@@H]2N2CCCC2)c(Cl)c1 (racemic) [Example 402, 3,5-dichloro-4-(rac-trans-(1,2)-2-pyrrolidin-1-ylindan-1-yloxy)benzenesulfonamide] | –
1000 to 10000 | NCC1CCN([C@@H]2Cc3ccccc3[C@H]2Oc2ccc3[nH]cc(CC(N)=O)c3c2)CC1 (racemic) [Example 388, 2-{5-[rac-trans-(1,2)-2-(4-aminomethylpiperidin-1-yl)indan-1-yloxy]-1H-indol-3-yl}acetamide] | –
1000 to 10000 | Cc1cc(O[C@H]2c3cc(F)cc(Cl)c3C[C@@H]2N2CCC[C@@H](N)C2)ccc1S(=O)(=O)C(F)(F)F (racemic) [Example 90, (R)-1-[rac-trans-(1,2)-4-chloro-6-fluoro-1-(3-methyl-4-trifluoromethanesulfonylphenoxy)indan-2-yl]piperidin-3-ylamine] | –
1000 to 10000 | CC(=O)Nc1cccc(O[C@H]2c3ccc(F)cc3C[C@@H]2N2CCCC2)c1 (racemic) [Example 656, N-[3-(rac-trans-(1,2)-5-fluoro-2-pyrrolidin-1-ylindan-1-yloxy)phenyl]acetamide] | –
1000 to 10000 | CN(C)S(=O)(=O)c1ccc(N[C@H]2c3cc(Cl)cc(Cl)c3C[C@@H]2N2CC[C@@H](O)C2)cc1 [Example 481, 4-[(1S,2S)-4,6-dichloro-2-((R)-3-hydroxypyrrolidin-1-yl)indan-1-ylamino]-N,N-dimethylbenzenesulfonamide] | –
1000 to 10000 | CC1(C)NC(=O)N(c2ccc(O[C@H]3c4cc(Cl)cc(Cl)c4C[C@@H]3N3CC[C@@H](O)C3)c(Cl)c2)C1=O [Example 423, 3-{3-chloro-4-[(1S,2S)-4,6-dichloro-2-((R)-3-hydroxypyrrolidin-1-yl)indan-1-yloxy]phenyl}-5,5-dimethylimidazolidine-2,4-dione] | –
1000 to 10000 | O=C1OCCN1c1cccc(O[C@H]2c3cc(Cl)cc(Cl)c3C[C@@H]2N2CC[C@@H](O)C2)c1 [Example 419, 3-{3-[(1S,2S)-4,6-dichloro-2-((R)-3-hydroxypyrrolidin-1-yl)indan-1-yloxy]phenyl}oxazolidin-2-one] | –

— patent US8822449B2, “Substituted aminoindanes and analogs thereof, and the pharmaceutical use thereof” (Sanofi, priority 2008, dated 2014)
